Data set [1] has as its system macrophages from the peritoneal fluid. Description: LPS induced proliferation and polarization of macrophages from the peritoneal fluid. The data set is classed as in vivo. To be noted: for polarized M1 macrophages or M2 macrophages: in comparison of sepsis condition.
In data set [2] the test system is inducible NO (iNO) and another ROS. As to the kind of experiment: Inducible NO, ROS and coagulation disorder induced by LPS sepsis.
Data set [3] deals with inflammatory cells, such as WBC, neutrophils and monocytes. As to the kind of experiment: Systemic inflammatory cells in sepsis. The data set is classed as in vivo.
Data set [4] concerns INFs, IL-1B, IL-2,4,6,10,12, TNFa and MCP. Description: Cytokine storm in sepsis, production and release of cytokines.
In data set [5] the test system is sepsis and sepsis related ARDS. As to the kind of experiment: Overall effect on sepsis and sepsis related ARDS. Particulars: in vivo.
A further data set has as its system NF-κB and MARK pathways. Description: NF-κB and MARK pathways activated by LPS in sepsis.
The subject of data set [6] is sepsis by high doses LPS challenge. Description: LPS sepsis, mortality of mice. It is filed as in vivo. Particulars: for survival: high doses LPS challenge; for mortality: high doses LPS challenge (100% mortality without treatment).
The test system of data set [7] is bronchial hyper-responsiveness induced by LPS sepsis. As to the kind of experiment: Lung function and bronchial hyper-responsiveness in LPS sepsis. The data set is classed as in vivo. Particulars: for bronchial hyper-responsiveness: induced by LPS sepsis.
Data set [8] deals with tissue of lung, heart or kidney. Description: Pathological examination of organs in sepsis. The data set is classed as in vivo.
Data set [9] has as its system patients with acute respiratory distress Syndrome (ARDS) caused by sepsis. To be noted: cited from earlier work.

The source of these data is US20240033232A1, “New use of (R)-B2-agonists in treatment of sepsis and acute respiratory distress syndrome” (priority 2021, published 2024).

Consider `OCc1cc([C@H](O)CNCCCCCCOCCCCc2ccccc2)ccc1O` [(S)-salmeterol], for which the “polarized M1 macrophages or M2 macrophages” value in [1] is on record as “further increased”.

As for `CC(C)(C)NC[C@H](O)c1cc(O)cc(O)c1` [(R)-terbutaline], in data set [2], the “coagulating system disorder such as disseminated intravascular coagulation (DIC)” value is listed as “prevent”; the “over production of inducible NO (iNO) and another ROS” value is “significantly prevent and inhibit”. For the same compound, in data set [3], the “increase of inflammatory cells (WBC, neutrophils, monocytes)” value (“increase of inflammatory cells” below) was “significantly inhibite”. For the same compound, the “production and release of cytokines” value in data set [4] is listed as “significantly reduced”. In addition, the “effect on sepsis and sepsis related ARDS” value in data set [5] is given as “very effective”. Further, in the data set with NF-κB and MARK pathways, the “NF-κB and MARK pathways (expression or phosphorylation)” value is given as “significantly inhibited”. For the same compound, in data set [6], the survival result is on record as “most of animal survived” and the mortality result is “greatly reduced”. In data set [7], the bronchial hyper-responsiveness result is on record as “significantly ameliorated”. In data set [7] (sepsis), the arterial oxygenation entry is listed as “maintain a normal arterial oxygenation” and the “deterioration of lung function” value was “prevent or restored the deterioration”. Besides, the “pathological changes (inflammatory infiltration, edema, lesions, apoptosis) in lung, heart or kidney” value (from here on “pathological changes”) in [8] is “greatly ameliorated and improved”.

On to `CC(C)(C)NC[C@H](O)c1ccc(O)c(CO)c1` [(R)-salbutamol], for which, in data set [2], the “coagulating system disorder such as disseminated intravascular coagulation (DIC)” value was “prevent”; the “over production of inducible NO (iNO) and another ROS” value is “significantly prevent and inhibit”. The “increase of inflammatory cells” value in data set [3] is on record as “significantly inhibite”. Moreover, the “production and release of cytokines” value in data set [4] is given as “significantly reduced”. Further, the “number of macrophages from the peritoneal fluid” value in data set [1] (LPS induced) is “significantly reduced toward normal level”. Besides, the “polarized M1 macrophages or M2 macrophages” value in [1] is given as “significant reduction”. In addition, the “effect on sepsis and sepsis related ARDS” value in [5] is recorded as “very effective”. For the same compound, in [6], the survival result is given as “most of animal survived” and the mortality result is “greatly reduced”. For the same compound, the “pathological changes” value in data set [8] was “greatly ameliorated and improved”.

Consider `CC(C)(C)NC[C@@H](O)c1cc(O)cc(O)c1` [(S)-terbutaline], for which the “increase of inflammatory cells” value in [3] is listed as “further increased”. Also, the “effect on sepsis and sepsis related ARDS” value in data set [5] was “increase the risk of sepsis or worsen sepsis”. Moreover, the “NF-κB and MARK pathways (expression or phosphorylation)” value with NF-κB and MARK pathways is listed as “further enhanced”. Moreover, in data set [7], the bronchial hyper-responsiveness result is listed as “further worsened”. The “pathological changes” value in [8] is given as “further worsened”.

Consider `CC(C)(C)NC[C@@H](O)c1ccc(O)c(CO)c1` [(S)-salbutamol], for which the “effect on sepsis and sepsis related ARDS” value in data set [5] is reported as “increase the risk of sepsis or worsen sepsis”. In [8], the “pathological changes” value is recorded as “further worsened”.

Turning to `CC(C)(C)NCC(O)c1ccc(O)c(CO)c1` (racemic) [salbutamol], the “ICU mortality and hospital mortality in comparing with placebo” value in data set [9] is “significantly increased”. In data set [9] (salbutamol infusion), the “increase of mortality in comparing with placebo” value is listed as 11%.
